Experimental data taken from ChEMBL document CHEMBL4665781, “Metabolomic Comparison and Assessment of Co-cultivation and a Heat-Killed Inducer Strategy in Activation of Cryptic Biosynthetic Pathways” (J Nat Prod, 2020).
Active and inactive are the calls of the source. The calls are words filed in the database; no cut-off is given here.

What was measured:
[1] = system: Staphylococcus warneri; assay: Antimicrobial activity against Staphylococcus warneri ATCC 17917 after 22 hrs by CLSI protocol based microbroth dilution assay; type: functional, organism-based
[2] = system: Candida albicans; assay: Antimicrobial activity against Candida albicans ATCC 14035 after 22 hrs by CLSI protocol based microbroth dilution assay; type: functional, organism-based
[3] = system: Vero; assay: Cytotoxicity against African green monkey Vero cells assessed as reduction in cell viability up to 32 ug/ml after 24 hrs by alamar blue dye based assay; details: chlorocebus sabaeus
[4] = system: Proteus vulgaris; assay: Antimicrobial activity against Proteus vulgaris ATCC 12454 after 22 hrs by CLSI protocol based microbroth dilution assay; type: functional, organism-based
[5] = Cytotoxicity against human HTB26 cells assessed as reduction in cell viability up to 32 ug/ml after 24 hrs by alamar blue dye based assay; details: htb26, 24 h
[6] = system: HCT-116; assay: Cytotoxicity against human HCT-116 cells assessed as reduction in cell viability up to 32 ug/ml after 24 hrs by alamar blue dye based assay; details: hct-116, 24 h
[7] = system: MCF7; assay: Cytotoxicity against human MCF7 cells assessed as reduction in cell viability up to 32 ug/ml after 24 hrs by alamar blue dye based assay; details: mcf7, 24 h
[8] = system: Staphylococcus aureus; assay: Antimicrobial activity against methicillin-resistant Staphylococcus aureus ATCC 33591 after 22 hrs by CLSI protocol based microbroth dilution assay; type: functional, organism-based
[9] = system: Enterococcus faecium; assay: Antimicrobial activity against vancomycin-resistant Enterococcus faecium EF379 after 22 hrs by CLSI protocol based microbroth dilution assay; type: functional, organism-based
[10] = Cytotoxicity against human HTB26 cells assessed as reduction in cell viability after 24 hrs by alamar blue dye based assay; details: HTB26, 24 h
[11] = system: MCF7; assay: Cytotoxicity against human MCF7 cells assessed as reduction in cell viability after 24 hrs by alamar blue dye based assay; details: MCF7, 24 h

**Q.** What does the source list for `COc1cccc(C(=O)NC(N)=O)c1O`?
**A.** Activity [1]: inactive; Activity [2]: inactive; Activity [3]: Non-Toxic; Activity [4]: inactive; Activity [5]: Non-Toxic; Activity [6]: Non-Toxic; Activity [7]: Non-Toxic; Activity [8]: inactive; Activity [9]: inactive

**Q.** For `CCCCCCCC1=C(C)C(=O)C(=O)c2c1[nH]c1ccccc21`, which Activity [1] is on record?
**A.** inactive

**Q.** And the Activity [2]?
**A.** inactive

**Q.** What about the IC50 [10] of the same molecule?
**A.** 3.67 µM

**Q.** And the IC50 [11]?
**A.** 3.07 µM

**Q.** And the Activity [4]?
**A.** inactive

**Q.** What about the Activity [8] of the same molecule?
**A.** inactive

**Q.** What about the Activity [9] of the same molecule?
**A.** inactive
